Measured values published in patent US12144791B2, “KRAS agonists, pharmaceutical compositions, and uses in managing cancer” (Emory University, priority 2019, dated 2024).
Entries after “also recorded” stand apart in the source; their conditions may differ.

Columns and labels:
KRAS G12D = KRAS G12D (Homo sapiens, UniProt P01116, G12D); assay: In vitro cell-free GDP-GTP exchange, KRAS G12D; type: biochemical; details: with GEF (RASGRP1) and GAP (RASA1), 25° C., 60 min
Procedure: GTPγS, purified GFP (RASGRP1, 180 nM) and GAP (RASA1, 180 nM) at 25° C. in the presence or absence of increasing concentrations of KRA-533.
(§1) To test whether KRA-533 directly binds to KRAS, a thermal shift assay was employed. […] To further assess whether KRA-533 activates KRAS directly, an in vitro cell-free GDP-GTP exchange experiment was carried out. Purified WT, G12C, G12D or G13D mutant KRAS proteins were incubated with purified GEF (RASGRP1) and GAP (RASA1) proteins in reaction buffer containing [γ-35S]-GTP in the absence or presence of increasing concentrations of KRA-533 at 25° C. for 60 min. KRAS activity was quantified by liquid scintillation counting. […] These findings indicate that KRA-533 not only activates WT KRAS but also has the capacity to further enhance KRAS activity of mutant KRAS.

[1] = test system: A549, H157, Calu-1 and H292 cells; assay: Western blot of pERK, apoptosis and autophagy markers in total lysate; type: cell-based, human; details: 0, 5, 10, 15 μM, 48 h
Procedure: “0” means DMSO vehicle control. […] Expression levels of KRAS, pERK, active caspase 3, PARP cleavage, Beclin1, LC3-I and LC3-II in total lysate were analyzed by Western blot.
Activated KRAS can trigger cell death via apoptosis and autophagy-associated cell death in cancer cells. To test whether KRA-533- activated KRAS promotes apoptosis and autophagic cell death, A549, H157, Calu-1 and H292 cells were treated with increasing concentrations of KRA-533 for 48 h, followed by analysis of KRAS activity, apoptosis and autophagy. […] Autophagy was measured by analysis of LC3-I/LC3-II and p62 following treatment of cells with KRA-533. It is well known that p62 is an autophagy receptor or substrate that can be degraded by autophagy. In addition to LC3-II, p62 was analyzed as another autophagy marker. […] To further quantify the level of autophagy, a GFP-LC3 construct was used to indicate autophagosomes. After treatment with KRA-533, GFP-LC3 redistributed from a diffuse staining pattern in the cytoplasm and nucleus to a cytoplasmic punctate structure that specifically labels pre-autophagosomal and autophagosomal membranes (i.e. GFP-LC3 vac cells). […] These findings indicate that, in addition to apoptosis, KRA-533 can also induce autophagic cell death.

A549 and H157 cells = assay: Western blot of autophagy marker p62 with or without chloroquine; type: cell-based, human; details: 48 h
Procedure: To assess whether the autophagy inhibitor regulates KRA-533-induced autophagy formation, A549 and H157 cells were treated with KRA-533 in the absence or presence of autophagy inhibitor chloroquine for 48 h, followed by Western blot analysis of the autophagy marker p62.

NSCLC cells = assay: MTS Cell Proliferation Colorimetric Assay; type: cell-based, human; details: 48 h
Text: (§2) A library containing small molecules from the National Cancer Institute (NCI) was employed to dock the GTP/GDP binding pocket of KRAS (PDB ID code: 4EPT) using the University of California, San Francisco (UCSF) DOCK 6.1 program suite. The small molecules were ranked according to their energy scores. Top 500 small molecules with predicted binding energies were selected for screening of cytotoxicity in human lung cancer cells by sulforhodamine B (SRB) assay. […] This lead compound was named KRAS agonist-533 (KRA-533) (FIG. 1A). To test whether KRA-533 regulates KRAS activity in lung cancer cells, human lung cancer cell lines with or without KRAS mutation were treated with KRA-533 (10 μM) for 48 h. […] Cell proliferation was also measured following treatment of cells for 48 h using MTS Cell Proliferation Colorimetric Assay Kit.

GFP-tagged KRAS S17A = biological target: T1, GFP-tagged KRAS S17A (Homo sapiens, UniProt P01116, S17A); assay: Raf-1-RBD pull-down of exogenous GFP-tagged KRAS S17A in A549 cells; type: cell-based; details: 15 μM, 48 h
T1 construct: expressed in transfected cells; host or cells: A549
Procedure: The GFP-tagged exogenous KRAS-GTP (GFP-KRAS-GTP) was analyzed by Western blot using anti-GFP antibody.
(§3) To further test this intracellularly, GFP-tagged WT, S17A, K117A and AA KRAS mutants were exogenously transfected into A549 cells. […] Activities of exogenous GFP-tagged WT and KRAS mutants were analyzed by Western blot using GFP antibody.

KRAS S17A [2] = biological target: T2, KRAS S17A (Homo sapiens, UniProt P01116, S17A); assay: In vitro cell-free GDP-GTP exchange, KRAS S17A; type: biochemical; details: 15 μM
T2 construct: made in house
Procedure: GTPγS, purified GFP (RASGRP1, 180 nM) and GAP (RASA1, 180 nM) at 25° C. in the presence or absence of 15 μM KRA-533. The radioactivity remaining on the protein after intensive washing was quantified by liquid scintillation.
as §3

KRAS G13D = KRAS G13D (Homo sapiens, UniProt P01116, G13D); assay: Thermal shift assay, purified KRAS G13D; type: binding; details: increasing concentrations
Procedure: (§4) Melting temperature (Tm) values of DMSO Ctrl and 15 μM of KRA-533 are shown.
as §1

KRAS WT = KRAS WT (Homo sapiens, UniProt P01116); assay: Thermal shift assay, purified KRAS WT; type: binding; details: increasing concentrations
Procedure: as §4
(§5) Melting temperature (Tm) values of DMSO control and 15 μM KRA-533 are shown.
as §1, §3

[3] = Single-dose maximum tolerated dose (MTD); type: in vivo
Procedure: To define the appropriate doses of KRA-533 for in vivo experimentation, standard single-dose maximum tolerated dose (MTD) was determined. Nu/Nu nude mice were treated with a single dose of 150, 300 or 400 mg/kg i.p., followed by toxicity observations. […] Based on these findings, mice might die mainly from liver and kidney damage at a single 400 mg/kg dose. Thus, the single dose MTD of KRA-533 ranges from 300 to 400 mg/kg. One tenth of single-dose MTD was contemplated (˜30-40 mg/kg) for continuous treatment, e.g., between 10 and 30 mg/kg/day.

human lung cancer cells = assay: Screening of cytotoxicity by sulforhodamine B (SRB) assay; type: cell-based; details: among top 500 docked NCI small molecules
Text: as §2

KRAS S17A [4] = biological target: T2, KRAS S17A; assay: Thermal shift assay, purified KRAS S17A; type: binding
Procedure: as §5, §3

In the case of `O=C(CBr)NCCCCc1ccc(C(=O)O)cc1` [KRA-533, 4-(4-(2-bromoacetamido)butyl)benzoic acid], the “KRAS activity (liquid scintillation), KRAS G12D” value (KRAS G12D) was “further enhanced the activities of active KRAS mutants”, the LC3-II [1] was “dose-dependent increase of LC3-II” and the PARP cleavage [1] was “increased”. The “levels of pERK” value [1] was “increased levels”, the p62 [1] was “dose-dependent decrease of p62” and the “ratio of active caspase 3/procaspase 3” value [1] was “increased”. For the same molecule, the “autophagy marker p62, KRA-533 alone” value (A549 and H157 cells) was “induced autophagy with deceased p62 level via degradation”, the cell proliferation (NSCLC cells; various NSCLC cells) was “suppression of cell proliferation” and the “sensitivity of cell proliferation, KRAS mutant cells versus H292” value (NSCLC cells; A549, H157, Calu-1 vs H292) was “more sensitive to KRA-533 than H292 cells without KRAS mutation”. The “activity of exogenous GFP-tagged S17A KRAS (GFP-KRAS-GTP)” value (GFP-tagged KRAS S17A) was “activated exogenous WT and S17A”, the “KRAS activity (liquid scintillation), KRAS S17A” value (KRAS S17A [2]) was “directly activated” and the “melting temperature (Tm) / binding, KRAS G13D” value (KRAS G13D) was “Dose dependent increases in melting temperature (Tm)”. For the same molecule, the “melting temperature (Tm) / binding, KRAS WT” value (KRAS WT) was “Dose dependent increases in melting temperature (Tm); also recorded: could bind”, the MTD ([3]; mouse, in vivo, ip, Nu/Nu nude mice) was 300 to 400 mg/kg and the “Alanine transaminase (ALT)” value ([3]; single dose of 400 mg/kg) was “significantly elevated”. The “aspartate transaminase (AST)” value ([3]; single dose of 400 mg/kg) was “significantly elevated”, the “blood urea nitrogen (BUN)” value ([3]; single dose of 400 mg/kg) was “significantly elevated” and the “death of mice (time)” value ([3]; single dose of 400 mg/kg) was 8 days. The “weight loss or other toxicities (hematologic, liver and kidney function)” value ([3]; single dose of 150 or 300 mg/kg i.p.) was “did not cause weight loss or other toxicities”, the “activity against human lung cancer cells (cytotoxicity, SRB assay)” value (human lung cancer cells) was “the most potent activity against human lung cancer cells” and the “binding (thermal shift), KRAS S17A” value (KRAS S17A [4]) was “could bind”.
